Source: US7371779B2, “Synergistic compositions of N-acylhomoserine lactones and 4-quinolones” (The Secretary of State for Defense Science and Technology, priority 2001, dated 2008)
pIC50: −log10 of the molar value. Like-named read-outs stand apart in the source and are kept apart here.

What was measured:
murine splenocytes = experiment: ConA mitogen-stimulated proliferation of murine splenocytes ([3H]-thymidine incorporation); assay type: cell-based, mouse (BALB/c); settings: for pIC50: ConA 1 μg/ml, 100,000 spleen cells, Experiment I, read-out: IC50 in inhibition of ConA induced murine splenocyte proliferation
Procedure: (§1) Proliferation was assessed by the incorporation of [^3H]-thymidine into DNA. Eight-week-old female BALB/c mice were obtained from Harlan (Bicester, Oxon, UK) and given food and water ad libitum. Splenocyte suspensions were prepared by removing the spleens and placing them into RPMI 1640 medium. The spleens were forced through 70-μm-pore-size wire gauzes using the plunger from a 5-ml syringe to produce a single cell suspension. The cells were pelleted by centrifugation, and erythrocytes were lysed with 0.017 M Tris, 0.144 M ammonium chloride buffer, pH 7.2. Leucocytes were washed twice with RPMI 1640 medium with 2% (vol/vol) foetal calf serum (FCS) and resuspended in complete cell culture medium (CTCM) consisting of RPMI 1640 medium with 5% FCS, 2 mM L-glutamine, and 5×10^−5 M 2-mercaptoethanol. HSL compounds were tested at doubling down dilutions ranging from 1 mM to 0.1 μM in a final volume of 200 μl of CTCM, containing ConA (Sigma, Poole, UK) at 1 μg/ml and 100,000 spleen cells. Following incubation for 48 h at 37° C. in 5% CO2-air, 0.25 μCi [^3H]-thymidine (Amersham) in 10 μl volume made up in RPMI 1640 medium was added and the cells were incubated for a further 24 h. Cells were harvested onto fibreglass filters with a Packard filtermate harvester. After the addition of 25 μl of MicroScint-O (Packard) to each well the filters were counted with the Packard TopCount scintillation counter.
(§2) Mitogen (Concanavalin A) induced murine splenocyte proliferation was indicated by the incorporation of tritated thymidine into the DNA in the mouse spleen cells as shown by counts per minute using the scintillation counter. The inhibitory effect of an HSL compound being tested on cell proliferation was indicated by a reduction in counts per minute.
as §1, with “70 μm pore size” for “70-μm-pore-size”, “5 ml” for “5-ml”, “The title compound was” for “HSL compounds were”, “dilutions” for “dilutions ranging from 1 mM to 0.1 μM in a final volume of 200 μl of CTCM,”, “g/ml” for “μg/ml”, “COrair,” for “CO2-air,”
as §2, with “the title” for “an HSL”

human PBMC = experiment: ConA mitogen-stimulated proliferation of human PBMC ([3H]-thymidine incorporation); assay type: cell-based; settings: for pIC50: Experiment II, read-out: IC50 in inhibition of ConA induced cell proliferation of PBMC
Procedure: Blood specimens were obtained with consent from healthy human volunteers. Human peripheral blood mononuclear cells (PBMC) were isolated from heparinised whole blood by buoyant density centrifugation over Histopaque 1077 (Sigma, Poole, UK) at 600 g for 20 minutes. PBMC harvested from the ‘buffy’ layers were washed twice with RPMI 1640 medium and resuspended in CTCM. […] Human PBMC were incubated for 48 h at 37° C. in 5% CO2-air, followed by pulsing with 0.25 μCi [^3H]-thymidine (see above). After a further incubation of 24 h cells were harvested onto fibreglass filters and then counted in the presence of MicroScint-O with the Packard TopCount.
Concanavalin induced cell proliferation of human peripheral blood mononuclear cells (PBMC) was tracked, as described in I above, by a measurement of counts per minute using the scintillation counter. The inhibitory effect of an HSL compound being tested on cell proliferation was indicated by a reduction in counts per minute. […] Columns B, C and D represent different sources of human PBMC samples used.
Plots of counts per minute (cpm) against the concentration of the quorum sensing molecules and the vehicle are shown in FIG. 11.

TNF-alpha = TNF-alpha production from LPS-stimulated human PBMC (sandwich ELISA); assay type: cell-based; settings: for pIC50: Experiment III, read-out: IC50 in inhibition of LPS induced production of TNF-α by human PBMC; for inhibition of LPS induced TNF-α production by human PBMC, in words: LPS-stimulated human PBMC
Procedure: Bacterial lipopolysaccharide (LPS) stimulates the production of a variety of cytokines, including TNF-alpha, from human PBMC; these cytokines in turn influence the development of T cells, supporting a T helper 1 conducive milieu. Human PBMC prepared from whole blood by buoyant density centrifugation were resuspended in CTCM. […] Following incubation for 24 h at 37° C. in 5% CO2-air, the cell culture supernatants were collected and tested for TNF-alpha levels by ‘sandwich’ ELISA. Briefly, 96-well Nunc MaxiSorp (Life Technologies, Paisley, UK) plates were coated with 50 μl of a 2 μg/ml solution of mouse anti-human TNF-alpha monoclonal antibody (Pharmingen, UK) in 0.05 M carbonate/bicarbonate buffer, pH 9.6 overnight at 4° C. After washing the plates three times with PBS-Tween, which contained phosphate buffered saline (PBS) with 0.5% (vol/vol) Tween 20 (Sigma, Poole, UK), the plates were blocked with 1% (wt/vol) bovine serum albumin (BSA) (Sigma, Poole, UK) at room temperature for 2 h. Following three washes with PBS-Tween, 50 μl of cell culture supernatants were added and incubated overnight at 4° C.; standard human TNF-alpha (Pharmingen, UK) ranging from 2000 to 31.25 pg/ml were included for each plate. After four washes with PBS-Tween, 50 μl of a second antibody, biotinylated mouse anti-human TNF-alpha monoclonal antibody (Pharmingen, UK) was added at 0.5 μg/1 ml diluted in 1% BSA in PBS-Tween and incubated at room temperature for 1 h. Following four washes, the bound biotinylated antibody was detected with 50 μl of a 1:1,000 dilution of Streptavidin-peroxidase (Pharmingen, UK). At the end of an hour incubation at room temperature, the plates were thoroughly washed six times with PBS-Tween and the assay was developed by the addition of 100 μl of 0.1 mg/ml of tetramethyl benzidine subtrate (Sigma, Poole, UK) in 0.1 M sodium acetate buffer, pH 6 containing 0.03% H2O2. The enzyme reaction was stopped with 50 μl of 2.5 M H2SO4 after an incubation of 10 minutes at room temperature and the development was read at 450 nm with a spectrophotometric 96-well plate reader (Dynex).

O=C(CCCCCCCCCCBr)CC(=O)N[C@H]1CCOC1=O [Example 9, N-(13-Bromo-3-oxotridecanoyl)-L-homoserine lactone]
pIC50 (murine splenocytes): 5.52 | pIC50 (human PBMC; human PBMC source B): 5.10 | pIC50 (human PBMC; human PBMC source D): 4.92

CCCCCCC=CCCCC(=O)CC(=O)N[C@H]1CCOC1=O [Example 14, N-(3-Oxo-7-tetradecenoyl)-L-homoserine lactone]
pIC50 (murine splenocytes): 4.77

CCCCCCCCCC(O)CC(=O)N[C@H]1CCOC1=O (stereo partly drawn) [Example 21, N-(3-Hydroxydodecanoyl)-L-homoserine lactone]
pIC50 (murine splenocytes): 4.92

CN(C)C(=O)CCCCCCCCC(=O)CC(=O)N[C@H]1CCOC1=O [Example 20, N-[11-(N,N-Dimethylcarbamoyl)-3-oxoundecanoyl]-L-homoserine lactone]
pIC50 (murine splenocytes): 4.46

CCC=CCCCCCCCC(O)CC(=O)N[C@H]1CCOC1=O (stereo partly drawn) [Example 26, N-(3-Hydroxy-11-tetradecenoyl)-L-homoserine lactone]
pIC50 (murine splenocytes): 4.70

CCCCCC(C)CCC(=O)CC(=O)N[C@H]1CCOC1=O (stereo partly drawn) [Example 5, N-(6-Methyl-3-oxoundecanoyl)-L-homoserine lactone]
pIC50 (murine splenocytes): 5.30 | pIC50 (human PBMC; human PBMC source B): 4.70

O=C(CCCCCCCCCO)CC(=O)N[C@H]1CCOC1=O [Example 19, N-(12-Hydroxy-3-oxododecanoyl)-L-homoserine lactone]
pIC50 (murine splenocytes): 5.05 | pIC50 (TNF-alpha): 4.15

C=CCCCCCCCCCC(O)CC(=O)N[C@H]1CCOC1=O (stereo partly drawn) [Example 27, N-(3-Hydroxy-13-tetradecenoyl)-L-homoserine lactone]
pIC50 (murine splenocytes): 4.74

CCCC=CCCCCCCC(O)CC(=O)N[C@H]1CCOC1=O (stereo partly drawn) [Example 25, N-(3-Hydroxy-10-tetradecenoyl)-L-homoserine lactone]
pIC50 (murine splenocytes): 4.70

CC(C)CCCCCCC(=O)CC(=O)N[C@H]1CCOC1=O [Example 3, N-(10-Methyl-3-oxoundecanoyl)-L-homoserine lactone]
pIC50 (murine splenocytes): 5.10 | pIC50 (human PBMC; human PBMC source D): 4.60

N-(3-Hydroxy-9-tetradecenoyl)-L-homoserine lactone [Example 24]
pIC50 (murine splenocytes): 4.82

CCCC(=O)CC(=O)N[C@H]1CCOC1=O [OHHL, reference compound]
inhibition of LPS induced TNF-α production by human PBMC, in words (TNF-alpha): difference in activity between OHHL and OdDHL is marked

CCCC=CCCCCCCC(=O)CC(=O)N[C@H]1CCOC1=O [Example 16, N-(3-Oxo-10-tetradecenoyl)-L-homoserine lactone]
pIC50 (murine splenocytes): 4.82

C=CCCCCCCCCC(=O)CC(=O)N[C@H]1CCOC1=O [Example 10, N-(3-Oxo-12-tridecenoyl)-L-homoserine lactone]
pIC50 (murine splenocytes): 5.15

C=CCCCCCCCCCC(=O)CC(=O)N[C@H]1CCOC1=O [Example 18, N-(3-Oxo-13-tetradecenoyl)-L-lactone homoserine]
pIC50 (murine splenocytes): 5.00

CCC=CCCCCCCCC(=O)CC(=O)N[C@H]1CCOC1=O [Example 17, N-(3-Oxo-11-tetradecenoyl)-L-homoserine lactone]
pIC50 (murine splenocytes): 4.92

CCCCCCC=CCCCC(O)CC(=O)N[C@H]1CCOC1=O (stereo partly drawn) [Example 23, N-(3-Hydroxy-7-tetradecenoyl)-L-homoserine lactone]
pIC50 (murine splenocytes): 4.92

COC(=O)CCCCCCC(=O)CC(=O)N[C@H]1CCOC1=O [Example 4, N-(10-Methoxycarbonyl-3-oxodecanoyl)-L-homoserine lactone]
pIC50 (murine splenocytes): 4.14 | pIC50 (human PBMC; human PBMC source B): 4.70 | pIC50 (human PBMC; human PBMC source D): 4.20

CCCCCCCCC(=O)CC(=O)N[C@H]1CCOC1=O [Example 1, N-(3-oxoundecanoyl)-L-homoserine lactone]
pIC50 (murine splenocytes): 5.05 | pIC50 (human PBMC; human PBMC source B): 4.20 | pIC50 (human PBMC; human PBMC source C): 4.89 | pIC50 (human PBMC; human PBMC source D): 4.36

CCCCCCCCCCC(=O)CC(=O)N[C@H]1CCOC1=O [Example 8, N-(3-Oxotridecanoyl)-L-homoserine lactone]
pIC50 (murine splenocytes): 5.40 | pIC50 (human PBMC; human PBMC source B): 4.39 | pIC50 (human PBMC; human PBMC source C): 5.15 | pIC50 (human PBMC; human PBMC source D): 4.60

CCCCCCCCCCCC(O)CC(=O)N[C@H]1CCOC1=O (stereo partly drawn) [Example 22, N-(3-Hydroxytetradecanoyl)-L-homoserine lactone]
pIC50 (murine splenocytes): 5.15

CCCCCCCCCCCC(=O)CC(=O)N[C@H]1CCOC1=O [Example 11, N-(3-Oxotetradecanoyl)-L-homoserine lactone]
pIC50 (murine splenocytes): 5.22 | inhibition of ConA induced proliferation of human PBMC (cpm), in words (human PBMC; ConA 1 μg/ml): inhibited proliferation of human PBMC | pIC50 (human PBMC; human PBMC source B): 4.49 | pIC50 (human PBMC; human PBMC source C): 4.92 | pIC50 (human PBMC; human PBMC source D): 4.52 | pIC50 (TNF-alpha): 4.46 | inhibition of LPS induced TNF-α production by human PBMC, in words (TNF-alpha): inhibited the secretion

CCCCCC(=O)CC(=O)N[C@H]1CCOC1=O [OOHL, N-(3-oxooctanoyl)-L-homoserine lactone, reference compound]
inhibition of ConA induced murine splenocyte proliferation (cpm), in words (murine splenocytes; ConA 1 μg/ml, BALB/c splenocytes): failed to inhibit proliferation

O=C(CCCCCCCCCCCBr)CC(=O)N[C@H]1CCOC1=O [Example 12, N-(14-Bromo-3-oxotetradecanoyl)-L-homoserine lactone]
pIC50 (murine splenocytes): 5.10

O=C(CCCCCCCCBr)CC(=O)N[C@H]1CCOC1=O [Example 2, N-(11-Bromo-3-oxoundecanoyl)-L-homoserine lactone]
pIC50 (murine splenocytes): 5.22 | pIC50 (human PBMC; human PBMC source B): 4.74

COC(=O)CCCCCCCCCCC(=O)CC(=O)N[C@H]1CCOC1=O [Example 13, N-(13-Methoxycarbonyl-3-oxotridecanoyl)-L-homoserine lactone]
pIC50 (murine splenocytes): 5.22 | pIC50 (human PBMC; human PBMC source B): 4.82 | pIC50 (human PBMC; human PBMC source D): 4.70
